From patent publication US9458213B2, “Compositions and methods for diagnosing prostate cancer based on detection of SLC45A3-ELK4 fusion transcript” (CORNELL UNIVERSITY, priority 2009, dated 2016)

Key:
[1] = tested on: endogenous ELK4 mRNA in LNCaP cells; test: Hormonal treatment of LNCaP cells, quantitative RT-PCR (TAQMAN) of endogenous ELK4; assay type: cell-based, human
Method: (§1) FIGS. 4a-4c. Androgen stimulation of LNCaP cells and induction of SLC45A3-ELK4 (FIG. 4a), endogenous ELK4 (FIG. 4b) mRNA and KLK3 (PSA) mRNA (FIG. 4c). Bar charts are the average fold induction in LNCaP cells treated with 1nM R1881 in the absence (black bars) or presence (gray bars) of 10 μM flutamide at the indicated time points. For flutamide treatment cells were pre-treated 2 hours with 10 μM flutamide, medium was removed and the fresh medium plus 1 nM R1881 plus 10 μM flutamide were given for the indicated time points. All experiments were run in triplicates (standard deviation indicated by the error bars).
(§2) Quantitative RT-PCR using TAQMAN technology. To quantify SLC45A3-ELK4 and endogenous ELK4 transcripts, custom designed primers and probes (SLC45A3-ELK4: primers in SLC45A3 exon 1 and ELK4 exon 2, probe in ELK4 exon 2) were employed in (ELK4, Hs00360812_m1) TAQMAN Gene Expression Assays (Applied Biosystems, Foster City, Calif.) for improved sensitivity and specificity of detection. […] Each target was run in triplicate and expression levels were calculated using the comparative Ct method (ABI Bulletin 2, Applied Biosytems) with TCFL1 as a reference gene and given as fold change over the average expression levels of benign samples. […]

[2] = tested on: SLC45A3-ELK4 mRNA in LNCaP cells; test: Hormonal treatment of LNCaP cells, quantitative RT-PCR (TAQMAN) of SLC45A3-ELK4 fusion transcript; assay type: cell-based, human
Method: as §1, §2

[3] = LNCaP cells treated with R1881 (summary statement)
[4] = LNCaP cells, R1881 1 nM, twelve hours following treatment

C[C@]1(O)CC[C@H]2[C@@H]3CCC4=CC(=O)CCC4=C3C=C[C@@]21C [R1881]
regulation of endogenous ELK4 mRNA upon treatment [1, 3]: not endogenous ELK4 mRNA, was up-regulated | change in ELK4 (assay not targeting the fusion transcript) [1, 4]: no change | regulation of SLC45A3-ELK4 mRNA upon treatment [2, 3]: up-regulated | induction of SLC45A3-ELK4 [2, 4]: 25 fold
